Results: ChEMBL document CHEMBL1124019, “Synthesis and anticholinesterase activity of (-)-N1-norphysostigmine, (-)-eseramine, and other N(1)-substituted analogues of (-)-physostigmine” (J Med Chem, 1988)
pIC50: −log10 of the molar value.

Target: Acetylcholinesterase (Electrophorus electricus, UniProt O42275)
Sequence (O42275 whole entry): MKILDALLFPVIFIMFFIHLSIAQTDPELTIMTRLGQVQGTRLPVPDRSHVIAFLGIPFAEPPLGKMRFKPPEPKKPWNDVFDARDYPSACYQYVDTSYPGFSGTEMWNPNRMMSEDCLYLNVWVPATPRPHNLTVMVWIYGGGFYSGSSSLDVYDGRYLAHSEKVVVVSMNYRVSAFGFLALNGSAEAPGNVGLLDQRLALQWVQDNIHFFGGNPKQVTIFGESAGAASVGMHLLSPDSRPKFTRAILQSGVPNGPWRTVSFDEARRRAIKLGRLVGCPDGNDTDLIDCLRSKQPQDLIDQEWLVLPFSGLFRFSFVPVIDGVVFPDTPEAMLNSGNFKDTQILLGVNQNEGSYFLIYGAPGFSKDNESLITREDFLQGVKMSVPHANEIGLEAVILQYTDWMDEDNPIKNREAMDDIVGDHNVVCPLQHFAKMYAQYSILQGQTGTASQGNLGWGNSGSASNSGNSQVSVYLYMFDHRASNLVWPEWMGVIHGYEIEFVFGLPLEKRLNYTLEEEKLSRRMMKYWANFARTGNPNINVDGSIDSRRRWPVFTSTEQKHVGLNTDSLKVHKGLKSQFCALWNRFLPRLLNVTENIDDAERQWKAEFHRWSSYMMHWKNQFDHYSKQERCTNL
Description: In vitro inhibitory activity against acetylcholinesterase from electric eel

| SMILES | pIC50 |
| --- | --- |
| CNC(=O)Oc1ccc2c(c1)[C@]1(C)CCN(C(=O)NC)C1N2C (some centres not stated) | 5.03 |
| CN(C)C(=O)Oc1cccc([N+](C)(C)C)c1 [NEOSTIGMINE BROMIDE] | 7.06 |
